Measured values reported in BindingDB's records for doi:10.1111/j.1476-5381.1995.tb13240.x (Smithkline Beecham Pharmaceuticals, 1995).
pKi: −log10 of the molar value.

Assays:
[1] = target: 5-hydroxytryptamine receptor 2B (Rattus norvegicus, UniProt P30994)
[2] = target: T1, 5-hydroxytryptamine receptor 2C (Homo sapiens, UniProt P28335)
T1 sequence (P28335 whole entry): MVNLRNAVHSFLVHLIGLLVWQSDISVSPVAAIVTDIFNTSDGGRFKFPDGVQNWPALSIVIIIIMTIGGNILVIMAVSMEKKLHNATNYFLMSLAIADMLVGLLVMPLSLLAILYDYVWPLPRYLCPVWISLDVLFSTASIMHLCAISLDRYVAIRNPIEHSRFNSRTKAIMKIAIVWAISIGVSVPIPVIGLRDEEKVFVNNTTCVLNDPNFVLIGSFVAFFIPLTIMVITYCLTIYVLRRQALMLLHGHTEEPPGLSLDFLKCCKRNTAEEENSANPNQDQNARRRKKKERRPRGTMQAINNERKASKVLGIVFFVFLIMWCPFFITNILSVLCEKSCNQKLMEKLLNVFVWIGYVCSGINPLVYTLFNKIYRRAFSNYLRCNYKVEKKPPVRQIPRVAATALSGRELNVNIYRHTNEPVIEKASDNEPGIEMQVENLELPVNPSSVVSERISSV

[3] = target: T2, 5-hydroxytryptamine receptor 2C (Rattus norvegicus, UniProt P08909)
T2 sequence (P08909 whole entry): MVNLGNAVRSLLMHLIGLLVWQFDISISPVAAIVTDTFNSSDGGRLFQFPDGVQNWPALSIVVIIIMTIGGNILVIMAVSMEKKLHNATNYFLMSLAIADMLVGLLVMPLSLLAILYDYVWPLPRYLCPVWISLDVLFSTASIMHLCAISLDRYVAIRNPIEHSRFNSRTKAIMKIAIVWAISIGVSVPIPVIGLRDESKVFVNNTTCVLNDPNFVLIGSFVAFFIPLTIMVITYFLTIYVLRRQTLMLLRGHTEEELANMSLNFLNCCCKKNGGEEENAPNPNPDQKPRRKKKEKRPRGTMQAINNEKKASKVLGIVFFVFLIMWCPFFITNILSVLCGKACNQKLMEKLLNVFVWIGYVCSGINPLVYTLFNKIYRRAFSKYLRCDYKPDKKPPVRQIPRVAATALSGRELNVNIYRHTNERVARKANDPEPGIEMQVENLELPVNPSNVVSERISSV

Chain of 5-hydroxytryptamine receptor 2B (P30994 whole entry): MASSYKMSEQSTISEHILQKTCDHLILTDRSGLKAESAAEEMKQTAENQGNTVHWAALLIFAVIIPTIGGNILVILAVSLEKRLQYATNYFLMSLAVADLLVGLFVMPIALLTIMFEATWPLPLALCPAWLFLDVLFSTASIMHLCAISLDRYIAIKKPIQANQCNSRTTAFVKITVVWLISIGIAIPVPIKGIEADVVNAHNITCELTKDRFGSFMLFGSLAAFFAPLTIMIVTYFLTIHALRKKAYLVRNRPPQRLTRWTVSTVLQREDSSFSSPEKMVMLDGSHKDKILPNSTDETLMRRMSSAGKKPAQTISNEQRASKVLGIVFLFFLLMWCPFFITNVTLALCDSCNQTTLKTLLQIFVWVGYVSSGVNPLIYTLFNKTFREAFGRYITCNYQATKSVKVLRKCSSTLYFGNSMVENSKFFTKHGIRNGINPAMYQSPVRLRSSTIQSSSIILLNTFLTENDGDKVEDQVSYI

CC(N)Cc1c[nH]c2ccc(OCc3cccs3)cc12 (stereo not drawn) [NSC_5311036]
pKi [1]: 7.90 | pKi [2]: 6.50

COC(=O)[C@@H]1[C@H]2C[C@H]3c4[nH]c5ccccc5c4CCN3C[C@@H]2CC[C@@H]1O [yohimbic acid methyl ester]
pKi [3]: 5.30
